pEC50, pIC50: −log10 of the molar value. Where two headings read alike, the source gives them in different places.
Tests used:
[1] = molecular target: PD-1/PD-L1 (Homo sapiens, UniProt Q9NZQ7); test: TR-FRET PD-1/PD-L1 binding inhibition at the molecular level (free proteins)
Outline: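 HTRF read-out at 665/620 nm after 2 h at room temperature. Detection used anti-Tag1 Eu cryptate plus anti-Tag2 XL665 antibodies. Tagged PD-L1 and PD-1 proteins were pre-mixed with compound across twelve […] 1:2 dilutions starting at 200 nM.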

[2] = molecular target: T1, PD-L1 expressed on the cell surface (MC38 hPD-L1) (Homo sapiens, UniProt Q9NZQ7); test: Internalization of cell surface PD-L1, flow cytometry with fluorescent staining; format: cell-based; settings: MC38 hPD-L1 cells, 1 µM, 4 hours; untreated 90% to 99%
T1 construct: expressed in transfected cells; host or cells: MC38 mouse colon cancer cell line expressing human PD-L1
Experimental: In order to evaluate the internalization of cell surface PD-L1 induced by the compounds of the present invention synthesized according to the above Preparation Examples, a flow cytometry experiment using fluorescent staining was conducted as described below.
Specifically, a mouse colon cancer cell line expressing human PD-L1 (MC38 hPD-L1) was seeded into a 24-well plate at a density of 5 x 10^5 cells per well, followed by treatment with Compounds 206 to 227 at a concentration of 1 µM and incubation for 4 hours. After 4 hours, the compound-treated MC38 hPD-L1 cells were collected and stained with PE anti-hPD-L1 fluorecence at room temperature for 30 minutes. The rate of PD-L1 expression on the cell surface was then quantified using flow cytometry.

[3] = tested on: PD-1/PD-L1; test: PD-1/PD-L1 blockade bioassay at the cellular level (PD-L1 aAPC/CHO-K1 cells + PD-1 Effector T cells, luciferase); format: cell-based; settings: Homo sapiens, T-cell; PD-L1 aAPC/CHO-K1 cells with PD-1 Effector T cells, 6 hours, luminescence; read-out: PD-1/PD-L1 Inhibitory Activity EC50
Experimental: In order to evaluate the effect of the compounds of the present invention, synthesized according to the above Preparation Examples, on blocking signal transduction between PD-1/PD-L1-expressing cells, a PD-1/PD-L1 blockade bioassay was conducted as described below.
Specifically, PD-L1 aAPC/CHO-K1 cells engineered to express human PD-L1 were seeded into a 96-well white plate and cultured for one day. On the following day, the compounds were prepared in a 96-well plate by serial dilution at concentrations starting from 10 µM and 5 µM, followed by 1/4 dilutions to obtain a total of ten concentrations. The culture medium in the plate seeded with the PD-L1 aAPC/CHO-K1 cell line was removed, and 40 µL of each prepared compound solution was added to a 96-well plate. Thereafter, 40 µL of PD-1 Effector T cell line engineered to express human PD-1 was additionally added, and then cultured for 6 hours. After 6 hours, 80 µL of Bio-Glo luciferase buffer was added to each well, followed by incubation at room temperature for 10 minutes, and luminescence was measured using a microplate reader.

[4] = Tag1-PD-L1 and Tag2-PD-1 proteins, twelve concentrations from 200 nM, 2 hours at room temperature, read-out: FRET assay (IC50)

T1 sequence (Q9NZQ7 19-290): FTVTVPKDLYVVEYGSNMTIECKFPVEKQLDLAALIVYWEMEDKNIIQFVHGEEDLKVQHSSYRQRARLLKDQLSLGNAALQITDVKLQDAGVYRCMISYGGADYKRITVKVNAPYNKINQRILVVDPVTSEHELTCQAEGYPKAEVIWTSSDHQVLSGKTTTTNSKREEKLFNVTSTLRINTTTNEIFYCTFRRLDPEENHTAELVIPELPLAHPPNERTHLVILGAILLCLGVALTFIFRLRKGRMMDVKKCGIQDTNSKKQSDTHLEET
PD-1/PD-L1 (Homo sapiens, UniProt Q9NZQ7), sequence (Q9NZQ7 19-238 limits assumed): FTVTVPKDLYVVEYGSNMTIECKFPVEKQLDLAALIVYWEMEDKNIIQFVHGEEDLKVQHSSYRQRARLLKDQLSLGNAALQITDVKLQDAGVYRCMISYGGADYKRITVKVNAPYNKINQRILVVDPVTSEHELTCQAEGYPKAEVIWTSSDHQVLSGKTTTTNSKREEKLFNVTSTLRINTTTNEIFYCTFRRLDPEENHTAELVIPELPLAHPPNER

| pIC50 [1, 4] | Cell surface PD-L1 expression level (%) [2] [%] | pEC50 [3] | SMILES | pIC50 ([1]; read-out: FRET assay (IC50), Tag1-PD-L1 and Tag2-PD-1 proteins, twelve concentrations from 200 nM, 2 hours at room temperature) |
| --- | --- | --- | --- | --- |
| > 8.00 | 0.6 | 7.87 | O=C(O)CN[C@H]1CCCn2nc(C(=O)Nc3cccc(-c4cccc(NC(=O)c5ccc(CNCCO)cn5)c4Cl)c3Cl)cc21 [Compound 220, (S)-2-((2-((2,2'-dichloro-3'-(5-(((2-hydroxyethyl)amino)methyl)picolinamido)-[1,1'-biphenyl]-3-yl)carbamoyl)-4,5,6,7-tetrahydropyrazolo[1,5-a]pyridin-4-yl)amino)acetic acid] |  |
| > 8.00 | 41.3 |  | O=C(O)CN[C@@H]1CCCn2nc(C(=O)Nc3cccc(-c4cccc(NC(=O)c5ccc(CNCCO)cn5)c4Cl)c3Cl)cc21 [Compound 221, (R)-2-((2-((2,2'-dichloro-3'-(5-(((2-hydroxyethyl)amino)methyl)picolinamido)-[1,1'-biphenyl]-3-yl)carbamoyl)-4,5,6,7-tetrahydropyrazolo[1,5-a]pyridin-4-yl)amino)acetic acid] |  |
| 7.00 to 8.00 | 66.4 |  | O=C(O)CN[C@@H]1CCCn2nc(C(=O)Nc3cccc(-c4cccc(NC(=O)c5ccc(CN6CC[C@@H](O)C6)cn5)c4Cl)c3Cl)cc21 [Compound 223, 2-(((R)-2-((2,2'-dichloro-3'-(5-(((R)-3-hydroxypyrrolidin-1-yl)methyl)picolinamido)-[1,1'-biphenyl]-3-yl)carbamoyl)-4,5,6,7-tetrahydropyrazolo[1,5-a]pyridin-4-yl)amino)acetic acid] |  |
| > 8.00 | 70.8 |  | O=C1CC[C@@H](CN[C@H]2CCCn3nc(C(=O)Nc4cccc(-c5cccc(NC(=O)c6ccc(CNCCO)cn6)c5Cl)c4Cl)cc32)N1 [Compound 224, (S)-N-(2,2'-dichloro-3'-(5-(((2-hydroxyethyl)amino)methyl)picolinamido)-[1,1'-biphenyl]-3-yl)-4-((((S)-5-oxopyrrolidin-2-yl)methyl)amino)-4,5,6,7-tetrahydropyrazolo[1,5-a]pyridine-2-carboxamide] |  |
| 7.00 to 8.00 | 1.6 |  | O=C1CC[C@@H](CN[C@@H]2CCCn3nc(C(=O)Nc4cccc(-c5cccc(NC(=O)c6ccc(CNCCO)cn6)c5Cl)c4Cl)cc32)N1 [Compound 225, (R)-N-(2,2'-dichloro-3'-(5-(((2-hydroxyethyl)amino)methyl)picolinamido)-[1,1'-biphenyl]-3-yl)-4-((((S)-5-oxopyrrolidin-2-yl)methyl)amino)-4,5,6,7-tetrahydropyrazolo[1,5-a]pyridine-2-carboxamide] |  |
| 7.00 to 8.00 | 80.8 |  | O=C(Nc1cccc(-c2cccc(Nc3nccc4cc(CN5CC[C@H](O)C5)cnc34)c2Cl)c1Cl)c1cc2n(n1)CCC[C@@H]2N1CCC(C(=O)O)CC1 [Compound 226, 1-((S)-2-((2,2'-dichloro-3'-((3-(((S)-3-hydroxypyrrolidin-1-yl)methyl)-1,7-naphthyridin-8-yl)amino)-[1,1'-biphenyl]-3-yl)carbamoyl)-4,5,6,7-tetrahydropyrazolo[1,5-a]pyridin-4-yl)piperidine-4-carboxylic acid] |  |

Continued, molecule first:

| SMILES | pIC50 [1, 4] | Cell surface PD-L1 expression level (%) [2] [%] | pEC50 [3] | pIC50 ([1]; read-out: FRET assay (IC50), Tag1-PD-L1 and Tag2-PD-1 proteins, twelve concentrations from 200 nM, 2 hours at room temperature) |
| --- | --- | --- | --- | --- |
| O=C(Nc1cccc(-c2cccc(NC(=O)c3cc4n(n3)CCC[C@@H]4NCCO)c2Cl)c1Cl)c1ccc(CNCCO)cn1 [Compound 206, (S)-N-(2,2'-dichloro-3'-(5-(((2-hydroxyethyl)amino)methyl)picolinamido)-[1,1'-biphenyl]-3-yl)-4-((2-hydroxyethyl)amino)-4,5,6,7-tetrahydropyrazolo[1,5-a]pyridine-2-carboxamide] | > 8.00 | 0.9 | 7.80 |  |
| O=C(Nc1cccc(-c2cccc(NC(=O)c3cc4n(n3)CCC[C@H]4NCCO)c2Cl)c1Cl)c1ccc(CNCCO)cn1 [Compound 207, (R)-N-(2,2'-dichloro-3'-(5-(((2-hydroxyethyl)amino)methyl)picolinamido)-[1,1'-biphenyl]-3-yl)-4-((2-hydroxyethyl)amino)-4,5,6,7-tetrahydropyrazolo[1,5-a]pyridine-2-carboxamide] | > 8.00 | 77.5 | 7.07 |  |
| O=C(Nc1cccc(-c2cccc(NC(=O)c3cc4n(n3)CCC[C@@H]4N3CC[C@@H](C(=O)O)C3)c2Cl)c1Cl)c1ccc(CNCCO)cn1 [Compound 208, (R)-1-((S)-2-((2,2'-dichloro-3'-(5-(((2-hydroxyethyl)amino)methyl)picolinamido)-[1,1'-biphenyl]-3-yl)carbamoyl)-4,5,6,7-tetrahydropyrazolo[1,5-a]pyridin-4-yl)pyrrolidine-3-carboxylic acid] | > 8.00 | 0.5 | 7.90 |  |
| Cc1c(NC(=O)c2cc3n(n2)CCC[C@@H]3N2CC[C@@H](C(=O)O)C2)cccc1-c1cccc(Nc2nc(C(F)F)nc3cc(CN4CC[C@@H](O)C4)cnc23)c1C [Compound 210, (R)-1-((S)-2-((3'-((2-(difluoromethyl)-7-(((R)-3-hydroxypyrrolidin-1-yl)methyl)pyrido[3,2-d]pyrimidin-4-yl)amino)-2,2'-dimethyl-[1,1'-biphenyl]-3-yl)carbamoyl)-4,5,6,7-tetrahydropyrazolo[1,5-a]pyridin-4-yl)pyrrolidine-3-carboxylic acid] | > 8.00 | 3.2 | 7.80 |  |
| Cc1c(NC(=O)c2cc3n(n2)CCC[C@@H]3NCC(=O)O)cccc1-c1cccc(Nc2nc(C(F)F)nc3cc(CN4CC[C@@H](O)C4)cnc23)c1C [Compound 212, 2-(((S)-2-((3'-((2-(difluoromethyl)-7-(((R)-3-hydroxypyrrolidin-1-yl)methyl)pyrido[3,2-d]pyrimidin-4-yl)amino)-2,2'-dimethyl-[1,1'-biphenyl]-3-yl)carbamoyl)-4,5,6,7-tetrahydropyrazolo[1,5-a]pyridin-4-yl)amino)acetic acid] | > 8.00 | 22.1 | 7.49 |  |
| Cc1c(NC(=O)c2cc3n(n2)CCC[C@H]3NCC(=O)O)cccc1-c1cccc(Nc2nc(C(F)F)nc3cc(CN4CC[C@@H](O)C4)cnc23)c1C [Compound 213, 2-(((R)-2-((3'-((2-(difluoromethyl)-7-(((R)-3-hydroxypyrrolidin-1-yl)methyl)pyrido[3,2-d]pyrimidin-4-yl)amino)-2,2'-dimethyl-[1,1'-biphenyl]-3-yl)carbamoyl)-4,5,6,7-tetrahydropyrazolo[1,5-a]pyridin-4-yl)amino)acetic acid] | > 8.00 | 73.9 |  |  |
| Cc1c(NC(=O)c2ccc(CN3CC[C@@H](O)C3)cn2)cccc1-c1cccc(NC(=O)c2cc3n(n2)CCC[C@@H]3NCCO)c1C [Compound 214, (S)-4-((2-hydroxyethyl)amino)-N-(3'-(5-(((R)-3-hydroxypyrrolidin-1-yl)methyl)picolinamido)-2,2'-dimethyl-[1,1'-biphenyl]-3-yl)-4,5,6,7-tetrahydropyrazolo[1,5-a]pyridine-2-carboxamide] | > 8.00 | 5.7 | 7.40 |  |
| Cc1c(NC(=O)c2ccc(CN3CC[C@@H](O)C3)cn2)cccc1-c1cccc(NC(=O)c2cc3n(n2)CCC[C@H]3NCCO)c1C [Compound 215, (R)-4-((2-hydroxyethyl)amino)-N-(3'-(5-(((R)-3-hydroxypyrrolidin-1-yl)methyl)picolinamido)-2,2'-dimethyl-[1,1'-biphenyl]-3-yl)-4,5,6,7-tetrahydropyrazolo[1,5-a]pyridine-2-carboxamide] | > 8.00 | 88.7 |  |  |
| Cc1c(NC(=O)c2ccc(CN3CC[C@@H](O)C3)cn2)cccc1-c1cccc(NC(=O)c2cc3n(n2)CCC[C@H]3N2CC[C@@H](O)C2)c1C [Compound 217] |  | 82.8 | 6.60 | > 8.00 |
| O=C(O)CN[C@@H]1CCCn2nc(C(=O)Nc3cccc(-c4cccc(Nc5nccc6cc(CN7CC[C@@H](O)C7)cnc56)c4Cl)c3Cl)cc21 [Compound 219, 2-(((R)-2-((2,2'-dichloro-3'-((3-(((R)-3-hydroxypyrrolidin-1-yl)methyl)-1,7-naphthyridin-8-yl)amino)-[1,1'-biphenyl]-3-yl)carbamoyl)-4,5,6,7-tetrahydropyrazolo[1,5-a]pyridin-4-yl)amino)acetic acid] | > 8.00 | 36.5 |  |  |
